# Data from article PMC3142127, “Structural Analysis of Papain-Like NlpC/P60 Superfamily Enzymes with a Circularly Permuted Topology Reveals Potential Lipid Binding Sites” (PLoS ONE, 2011).
# Biological target: T1, BcPPNE (Bacillus cereus, UniProt Q74NK7)
# T1 construct: gene BCE_A0238; weak tetramer in solution
# T1 sequence (Q74NK7 1-195): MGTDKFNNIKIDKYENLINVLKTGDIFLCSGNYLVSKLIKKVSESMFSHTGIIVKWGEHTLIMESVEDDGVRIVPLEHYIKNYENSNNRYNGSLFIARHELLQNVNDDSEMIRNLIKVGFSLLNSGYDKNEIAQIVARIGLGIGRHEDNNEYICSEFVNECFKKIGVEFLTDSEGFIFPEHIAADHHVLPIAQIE
# Test: Thermofluor (thermal shift)
# Format: binding
# Conditions: no shift value printed
Compound,Thermofluor (thermal shift),"Thermofluor (thermal shift) (crystals soaked at 1 mM showed no ligand density, L-Lys remained bound)"
N=C(N)NCCC[C@H](N)C(=O)O [L-arginine],Thermofluor experiments indicated that BcPPNE also binds L-arginine and O-phospho-L-serine,
N[C@@H](COP(=O)(O)O)C(=O)O [O-phospho-L-serine],,Thermofluor experiments indicated that BcPPNE also binds L-arginine and O-phospho-L-serine
